Measurements from US20030207843A1, “Treatment of drug-resistant human immunodeficiency virus infection” (priority 1999, published 2003).
Like-named read-outs stand apart in the source and are kept apart here.

What was measured:
HIV-1LAI 4XAZT/W88G = test: p24 reduction assay in MT-2 cells, 4XAZT/W88G; type: cell-based
Experimental: (§1) Cells. MT-2 cells (AIDS Research and Reference Reagent Program, National Institute of Allergy and Infectious Diseases, National Institutes of Health) were maintained in RPMI 1640 supplemented with 10% fetal bovine serum (FBS; JRH Biosciences, Lenexa, Kans.), 10 mM HEPES buffer, 50 IU/ml penicillin and 50 μg/ml streptomycin.
(§2) Antiviral Susceptibility Assays. The antiviral activity of each compound was determined by inoculating MT-2 cells with HIV-1LAI at a multiplicity of infection (MOI) of 0.01 TCID50/cell, followed by incubation in the presence of three-fold serial drug dilutions (3 wells per dilution) (see Mellors, et. al., Antimicrob. Agents Chemother. 39:1087-1092). Five or seven days after infection, culture supernatants were harvested, lysed with 0.5% triton-X 100 and assayed for p24 antigen concentration using a commercial ELISA assay (DuPont, NEN Products, Wilmington, Del.). The antiviral activity of the compounds is expressed as the IC50, which is the concentration required to inhibit 50% of p24 antigen production. The fold-resistance of a test virus is calculated by dividing the IC50 of the test virus by the IC50 of the HIV-1LAI control virus.
(§3) Generation of Mutant Recombinant HIV-1. HIV-1 containing the desired mutations were generated by oligonucleotide directed mutagenesis (Altered Sites II, Promega) as previously described (Mellors, et. al., Molecular Pharm. 41:446-451). After mutagenesis, mutant RT was subcloned into the pxxHIV-1LAI cloning vector using the silent XmaI and XbaI restriction sites located at the 5′ and 3′ ends of RT. Clones were DNA sequenced to verify the presence of the desired mutation(s) and electroporated into MT-2 cells as described above to generate infectious mutant recombinant HIV-1.
(§4) Mutant RT was generated via oligonucleotide-directed mutagenesis and ligated into the pXXHIV-1LAI cloning vector. Cloning was facilitated by the presence of two silent restriction sites at the 5′ and 3′ ends (Xma1 and Xba1, respectively) of pXXHIV-1LAI RT. Infectious mutant recombinant HIV-1 was generated by electroporating MT-2 cells with mutated pXXHIV-1LAI clones. The presence of the desired mutations was verified by DNA sequencing.
(§5) Invention compounds were also evaluated against a panel of HIV-1LAI derived recombinants resistant to PFA and the PFA invention compounds, as shown in Table 7.
Recombinant viruses containing the mutations selected by invention compounds were also evaluated for their susceptibility to AZT, as shown in Table 8.

[1] = test system: K (multinucleoside resistant recombinant virus V75I, F77L, F116Y, Q151M); test: p24 reduction assay in MT-2 cells, virus K; type: cell-based, HIV-1; settings: Table 4; for Fold-resistance: virus K relative to wild type virus; for EC50: virus K, mean ± SD
Experimental: as §1, §2
(§6) The MNR panel consisted of a virus containing the mutations V75I, F77L, F116Y and […], a virus containing the T69S[SA insert], and a clinical isolate carrying the classic MNR genotype (62V/751/77L/116Y/151M). Each of the PFA invention compounds retained potency against these viruses with fold resistance values of <2.

[2] = test system: HIV-1LAI 4XAZT/Q161L/H208Y; test: p24 reduction assay in MT-2 cells, 4XAZT/Q161L/H208Y; type: cell-based; settings: Table 7; for EC50: 4XAZTQ161L/H208Y; for Fold-resistance: 4XAZTQ161L/H208Y relative to wild type virus
Experimental: as §1, §2, §3, §4, §5

HIV-1LAI M41L/T215Y = test: p24 reduction assay in MT-2 cells, M41L/T215Y; type: cell-based; settings: for EC50: M41L/T215Y; for Fold-resistance: M41L/T215Y relative to wild type virus
Experimental: as §1, §2, §3, §4
(§7) The multi-drug resistant HIV-1 strains, 11163p1 and 11588p1, are human clinical isolates having the RT mutations indicated. HIV-1 strains treated with the lipid analogs of the present invention include wild type, e.g., xxLAI, and the like, single mutation, e.g., xxLAI MI 84V (resistant to 3TC), xxLAI L74V (resistant to ddI and ddC), xxLAI K65R (resistant to ddI, ddC, DAPD, DXG, tenofovir, and adefovir), xxLAI T215Y (resistant to AZT), and the like, double mutations, e.g., xxLAI M41 L/T215Y (resistant to AZT), xxLAI MI 84V/T215Y (resistant to 3TC and AZT), and the like, and multiple mutations, e.g., xxLAI 4XAZT ((D67N, K70R, T215Y, K219Q) resistant to AZT)), xxLAI 4XAZT/M184V ((D67N, K70R, M 184V, T215Y, K219Q) resistant to AZT and 3TC), xxLAI M5456-12 (AZT+NNRTI resistant: D67N, K70R, K103N, T215Y), xxLAI G2-3g (AZT/3TC co-resistant: M41L, D67N, M184V, H208Y, L210W, R211K, L214F, T215Y, 1293V, E297A), 11163 (multinucleoside resistant virsus: M41L, A62V, V751, F77L, K103N, F116Y, Q151M, Y181C, M184V), 11588 (multinucleoside resistant virsus: A62V, K65R, K70R, V751, F77L, F116Y, Q151M, M184V, K219Q), and the like.

[3] = test system: HIV-1 G2-3g (molecularly cloned isolate co-resistant to AZT and 3TC); test: p24 reduction assay in MT-2 cells, G2-3g; type: cell-based; settings: for EC50: G2-3g; for Fold-resistance: G2-3g relative to wild type virus
Experimental: as §1, §2, §7

[4] = test system: 9GC (multinucleoside resistant recombinant virus D67E, S68T, T69S[SA insert], T215Y); test: p24 reduction assay in MT-2 cells, virus 9GC; type: cell-based, HIV-1; settings: Table 4; for Fold-resistance: virus 9GC relative to wild type virus; for EC50: virus 9GC, mean ± SD
Experimental: as §1, §2, §6

NL4-3 (wild type virus) = test: p24 reduction assay in MT-2 cells, NL4-3; type: cell-based, HIV-1
HIV-1LAI 4XAZT/E89K = test: p24 reduction assay in MT-2 cells, 4XAZT/E89K; type: cell-based; settings: Table 7; for EC50: 4XAZTE89K; for Fold-resistance: 4XAZTE89K relative to wild type virus
Experimental: as §1, §2, §3, §4, §5

HIV-1LAI E89K = test: p24 reduction assay in MT-2 cells, E89K; type: cell-based; settings: Table 7; for EC50: E89K; for Fold-resistance: E89K relative to wild type virus
Experimental: as §1, §2, §3, §4, §5

[5] = Table 7, 4XAZTW88G, read-out: EC50
[6] = Human immunodeficiency virus 1, MT2
[7] = Human immunodeficiency virus 1, MT2, Table 1, MOI 0.01
[8] = Human immunodeficiency virus 1, MT2, Table 5, mean ± SD

Row | SMILES | Fold-resistance [1] | EC50 [1] | EC50 [2] | Fold-resistance [2] | EC50 (HIV-1LAI M41L/T215Y; Table 1, MOI 0.01) | Fold-resistance (HIV-1LAI M41L/T215Y; Table 5) | EC50 (HIV-1LAI M41L/T215Y; Table 5, mean ± SD) | EC50 ([3]; Table 1, MOI 0.01) | Fold-resistance ([3]; Table 5) | EC50 ([3]; Table 5, mean ± SD) | Fold-resistance [4] | EC50 [4] | EC50 (HIV-1LAI 4XAZT/W88G; [5]) | EC50 (NL4-3 (wild type virus); Table 4, mean ± SD) | EC50 (HIV-1LAI 4XAZT/E89K) | Fold-resistance (HIV-1LAI 4XAZT/E89K) | EC50 (HIV-1LAI E89K) | Fold-resistance (HIV-1LAI E89K) | also measured
1 | Cc1cn([C@H]2C[C@H](N=[N+]=[N-])[C@@H](CO)O2)c(=O)[nH]c1=O [AZT, 3′-Azido-3′-deoxythymidine] |  |  |  |  |  |  |  |  |  |  |  |  |  |  |  |  |  |  | EC50 (HIV-1LAI 4XAZT/W88G; Human immunodeficiency virus 1, MT2, Table 8, W88G/4XAZT, read-out: AZT EC50): 0.06 ± 0.018 µM; Fold resistance (HIV-1LAI 4XAZT/W88G; Table 8, W88G/4XAZT relative to wild type virus): 1.5
2 | CCCCCCCCCCCCCCCCCCOC[C@@H](O)COP(=O)(O)C(=O)O [B-PFA, 1-O-octadecyl-sn-glycero-3-PFA] | (1.6) | 4.2 µM | 6.2 µM | 0.85 (2.4) | 1.25 µM | (0.5) | 0.94 ± 1.08 µM | 1.47 µM | (0.9) | 1.67 ± 0.95 µM | (1.6) | 4.1 ± 1.2 µM | 16.4 µM | 2.6 ± 1.5 µM | 17.4 µM | 14.9 (6.6) | > 30 µM | (>17.2) | 
3 | CCCCCCCCCCCCCCCCCCOC[C@H](COP(=O)(O)C(=O)O)OCC [EB-PFA, 1-O-octadecyl-2-O-ethyl-sn-glycero-3-PFA] |  | 0.9 ± 0.7 µM | 2.02 µM | 0.54 (2.6) | 0.41 µM | (0.5) | 0.3 ± 0.35 µM | 0.32 µM | (0.5) | 0.3 ± 0.04 µM | (0) | 0.2 ± 0.3 µM | 3.31 µM | 0.2 ± 0.2 µM | 4.39 µM | 4.59 (5.6) | 5.21 µM |  | 
4 | CCCCCCCCCCCCCCCCCCOC[C@H](COP(=O)(O)C(=O)O)OC [MB-PFA, 1-O-octadecyl-2-O-methyl-sn-glycero-3-PFA] | (0.87) | 2 ± 0.6 µM |  | 0.14 (2.7) | 0.13 µM | (0.4) | 0.18 ± 0.11 µM | 0.26 µM | (0.8) | 0.4 ± 0.26 µM | (0) |  | 2.46 µM | 2.3 ± 1.9 µM | 9.28 µM | 9.20 (11.1) | 7.21 µM | 0.12 (9.4) | 
5 | O=C(O)P(=O)(O)O [PFA, phosphonoformate, reference compound] | (0.7) |  |  | 17.50 (2.4) |  | (0.8) |  |  | (0.5) |  | (1.1) |  |  |  |  |  |  | 46.24 (6.9) | EC50 [1, 6]: 21.4 ± 15.6 µM; EC50 [2, 6]: 43.1 µM; EC50 (HIV-1LAI M41L/T215Y; [7]): 16.2 µM; EC50 (HIV-1LAI M41L/T215Y; [8]): 13.9 ± 4.14 µM; EC50 [3, 7]: 7.6 µM; EC50 [3, 8]: 8.85 ± 3.49 µM; EC50 [4, 6]: 13.2 ± 12.8 µM; EC50 (HIV-1LAI 4XAZT/W88G; Human immunodeficiency virus 1, MT2, Table 7, 4XAZTW88G, read-out: EC50): 86.2 µM; EC50 (NL4-3 (wild type virus); Human immunodeficiency virus 1, NL43, MT2, Table 4, mean ± SD): 15.1 ± 6.1 µM; EC50 (HIV-1LAI 4XAZT/E89K; [6]): 134 µM; EC50 (HIV-1LAI E89K; [6]): 90.2 µM
